Experimental data reported in US20250092056A1, “URACIL DERIVATIVES HAVING VIRUS REPLICATION INHIBITORY ACTIVITY AND PHARMACEUTICAL COMPOSITION COMPRISING THE SAME” (Shionogi & Co., Ltd., priority 2022, published 2025).

Target: Recombinant SARS-CoV-2 3CL Protease (Severe acute respiratory syndrome coronavirus 2 (2019-nCoV) (SARS-CoV-2), UniProt P0DTD1)
Experiment: biochemical
Format: biochemical
Settings: 50% SARS-CoV-2 3CL protease inhibitory concentration; read-out: IC50

Q: How did the IC50 turn out when `N#CCn1c(N2CC(C(F)(F)F)C2)c(-c2ccc(F)c(C(F)F)c2)c(=O)n(-c2cncc(Cl)c2)c1=O` [Compound I-341] was run?
A: < 10 nM

Q: `Cc1cncc(-n2c(=O)c(Cc3cc(F)c(F)c(F)c3)c(N3CCC(C(N)=O)CC3)n(CC#N)c2=O)c1` [Compound I-112] was tested. Which IC50 did it give?
A: < 10 nM

Q: `N#CCn1c(N2Cc3ccccc3C2)c(Sc2cc(F)c(F)c(F)c2)c(=O)n(-c2cncc(Cl)c2)c1=O` [Compound I-167] was tested. Which IC50 did it give?
A: 49 nM

Q: Which IC50 does the source give for `Cc1cncc(-n2c(=O)c(Oc3ccccc3)c(N3Cc4ccccc4C3)n(CC#N)c2=O)c1` [Compound I-014] here?
A: 5.1 nM

Q: For `N#CCn1c(N2Cc3cn[nH]c3C2)c(Cc2cc(F)c(F)c(F)c2)c(=O)n(-c2cc[nH]c(=O)c2)c1=O` [Compound I-053], which IC50 is on record?
A: 32 nM

Q: For `Cc1cncc(-n2c(=O)c(Cc3cc(F)c(F)c(F)c3)c(N3CCCC3)n(CC#N)c2=O)c1` [Compound I-203], which IC50 is on record?
A: 10 to 100 nM

Q: For `Cc1cncc(-n2c(=O)c(-c3ccc(F)c(Cl)c3)c(C3=CC4(CCOCC4)C3)n(CC#N)c2=O)c1` [Compound I-297], which IC50 is on record?
A: < 10 nM

Q: For `N#CCn1c(N2CC3(CCOC3)C2)c(-c2ccc(F)c(Cl)c2)c(=O)n(-c2cnc3cc(F)ccn23)c1=O` [Compound I-147], which IC50 is on record?
A: < 10 nM

Q: `N#CCn1c(N2CC3(CCOC3)C2)c(-c2cc(Cl)cc(C#N)c2)c(=O)n(-c2cncc(Cl)c2)c1=O` [Compound I-179] was tested. Which IC50 did it give?
A: < 10 nM

Q: With `N#CCn1c(N2CCC(O)(C(F)(F)F)CC2)c(-c2ccc(F)c(Cl)c2)c(=O)n(-c2cncc(Cl)c2)c1=O` [Compound I-087] as the compound, how does the IC50 read?
A: < 10 nM

Q: How did the IC50 turn out when `N#CCn1c(N2CC(OC(F)F)C2)c(-c2ccc(F)c(Cl)c2)c(=O)n(-c2cncc(Cl)c2)c1=O` [Compound I-298] was run?
A: < 10 nM

Q: Which IC50 does the source give for `CC(C)(O)C1CN(c2c(-c3ccc(F)c(Cl)c3)c(=O)n(-c3cnc4cc(Cl)ccn34)c(=O)n2CC#N)C1` [Compound I-133] here?
A: 10 to 100 nM

Q: `Cc1cncc(-n2c(=O)c(Cc3cc(F)c(F)c(F)c3)c(N3CCC4(CCC(O)C4)C3)n(CC#N)c2=O)c1` (racemic) [Compound I-110] was tested. Which IC50 did it give?
A: < 10 nM

Q: Which IC50 does the source give for `CC(C)OC1CN(c2c(-c3ccc(F)c(Cl)c3)c(=O)n(-c3cncc(Cl)c3)c(=O)n2CC#N)C1` [Compound I-084] here?
A: < 10 nM

Q: With `Cc1cncc(-n2c(=O)c(-c3ccc(F)c(Cl)c3)c(N3Cc4ccccc4C3=O)n(CC#N)c2=O)c1` [Compound I-023] as the compound, how does the IC50 read?
A: < 10 nM

Q: `CC(C)(F)Cc1c(-c2ccc(F)c(Cl)c2)c(=O)n(-c2cncc(Cl)c2)c(=O)n1CC#N` [Compound I-307] was tested. Which IC50 did it give?
A: < 10 nM

Q: How did the IC50 turn out when `Cc1c(-c2ccc(F)c(Cl)c2)c(=O)n(-c2cncc(Cl)c2)c(=O)n1CC(=O)CO` [Compound I-443] was run?
A: > 100 nM

Q: How did the IC50 turn out when `N#CCn1c(N2CC(O)(C(F)(F)F)C2)c(-c2ccc(F)c(C#N)c2)c(=O)n(-c2cncc(Cl)c2)c1=O` [Compound I-373] was run?
A: < 10 nM

Q: With `Cc1cncc(-n2c(=O)c(Cc3cc(F)c(F)c(F)c3)c(N3CCC(C(F)(F)F)C3)n(CC#N)c2=O)c1` (racemic) [Compound I-113] as the compound, how does the IC50 read?
A: < 10 nM

Q: With `N#CCn1c(N2CC3(CC3)C2)c(-c2ccc(F)c(Cl)c2)c(=O)n(-c2cncc(Cl)c2)c1=O` [Compound I-078] as the compound, how does the IC50 read?
A: < 10 nM

Q: How did the IC50 turn out when `Cc1cncc(-n2c(=O)c(Oc3cc(F)c(F)c(F)c3)c(-c3cc4ccccc4s3)n(CC#N)c2=O)c1` [Compound I-018] was run?
A: < 10 nM

Q: For `N#CCn1c(N2CC(O)(C(F)F)C2)c(-c2ccc(F)c(Cl)c2)c(=O)n(-c2cncc(C(F)F)n2)c1=O` [Compound I-345], which IC50 is on record?
A: < 10 nM

Q: `Cc1cncc(-n2c(=O)c(-c3ccc(F)c(Cl)c3)c(-c3cnc4ccccc4c3)n(CC#N)c2=O)c1` [Compound I-017] was tested. Which IC50 did it give?
A: < 10 nM

Q: `COc1ccc(-c2c(-c3ccc(F)c(Cl)c3)c(=O)n(-c3cncc(Cl)c3)c(=O)n2CC#N)cn1` [Compound I-379] was tested. Which IC50 did it give?
A: < 10 nM

Q: With `Cc1cncc(-n2c(=O)c(-c3ccc(F)c(Cl)c3)c(-c3cc4ccccc4[nH]3)n(CC#N)c2=O)c1` [Compound I-026] as the compound, how does the IC50 read?
A: < 10 nM

Q: How did the IC50 turn out when `Cc1cncc(-n2c(=O)c(-c3ccc(F)c(Cl)c3)c(Cl)n(CC#N)c2=O)c1` [Compound I-015] was run?
A: < 10 nM

Test system: SARS-CoV-2
Experiment: Cytopathic effect (CPE) suppression effect confirmation test using HEK293T/ACE2-TMPRSS2 cells
Format: cell-based
Settings: Severe acute respiratory syndrome coronavirus 2, HEK-293T, 72 h, read-out: EC50 (50% SARS-CoV-2 infected cell death inhibitory concentration), HEK293T/ACE2-TMPRSS2 cells, CPE suppression, CellTiter-Glo 2.0 after 3 days culture

Q: How did the EC50 turn out when `N#CCn1c(N2Cc3ccccc3C2)c(Sc2cc(F)c(F)c(F)c2)c(=O)n(-c2cncc(Cl)c2)c1=O` [Compound I-167] was run?
A: 26.3 nM

Q: How did the EC50 turn out when `Cc1cncc(-n2c(=O)c(Oc3ccccc3)c(N3Cc4ccccc4C3)n(CC#N)c2=O)c1` [Compound I-014] was run?
A: 17 nM

Q: With `N#CCn1c(N2Cc3cn[nH]c3C2)c(Cc2cc(F)c(F)c(F)c2)c(=O)n(-c2cc[nH]c(=O)c2)c1=O` [Compound I-053] as the compound, how does the EC50 read?
A: 2610 nM

Same assay, conditions: Severe acute respiratory syndrome coronavirus 2, HEK-293T, 72 h, read-out: EC50 (50% SARS-CoV-2 infected cell death inhibitory concentration), class, HEK293T/ACE2-TMPRSS2 cells, CPE suppression, CellTiter-Glo 2.0 after 3 days culture

Q: For `Cc1cncc(-n2c(=O)c(Cc3cc(F)c(F)c(F)c3)c(N3CCC(C(N)=O)CC3)n(CC#N)c2=O)c1` [Compound I-112], which EC50 is on record?
A: 100 to 1000 nM

Q: Which EC50 does the source give for `N#CCn1c(N2CC3(CCOC3)C2)c(-c2ccc(F)c(Cl)c2)c(=O)n(-c2cnc3cc(F)ccn23)c1=O` [Compound I-147] here?
A: < 100 nM

Q: `N#CCn1c(N2CC3(CCOC3)C2)c(-c2cc(Cl)cc(C#N)c2)c(=O)n(-c2cncc(Cl)c2)c1=O` [Compound I-179] was tested. Which EC50 did it give?
A: < 100 nM

Q: With `N#CCn1c(N2CCC(O)(C(F)(F)F)CC2)c(-c2ccc(F)c(Cl)c2)c(=O)n(-c2cncc(Cl)c2)c1=O` [Compound I-087] as the compound, how does the EC50 read?
A: < 100 nM

Q: How did the EC50 turn out when `Cc1cncc(-n2c(=O)c(Cc3cc(F)c(F)c(F)c3)c(N3CCC4(CCC(O)C4)C3)n(CC#N)c2=O)c1` (racemic) [Compound I-110] was run?
A: < 100 nM

Q: With `CC(C)OC1CN(c2c(-c3ccc(F)c(Cl)c3)c(=O)n(-c3cncc(Cl)c3)c(=O)n2CC#N)C1` [Compound I-084] as the compound, how does the EC50 read?
A: < 100 nM

Q: `Cc1cncc(-n2c(=O)c(-c3ccc(F)c(Cl)c3)c(N3Cc4ccccc4C3=O)n(CC#N)c2=O)c1` [Compound I-023] was tested. Which EC50 did it give?
A: < 100 nM

Q: Which EC50 does the source give for `Cc1cncc(-n2c(=O)c(Cc3cc(F)c(F)c(F)c3)c(N3CCC(C(F)(F)F)C3)n(CC#N)c2=O)c1` (racemic) [Compound I-113] here?
A: < 100 nM

Q: How did the EC50 turn out when `N#CCn1c(N2CC3(CC3)C2)c(-c2ccc(F)c(Cl)c2)c(=O)n(-c2cncc(Cl)c2)c1=O` [Compound I-078] was run?
A: < 100 nM

Q: Which EC50 does the source give for `Cc1cncc(-n2c(=O)c(Oc3cc(F)c(F)c(F)c3)c(-c3cc4ccccc4s3)n(CC#N)c2=O)c1` [Compound I-018] here?
A: < 100 nM

Q: Which EC50 does the source give for `Cc1cncc(-n2c(=O)c(-c3ccc(F)c(Cl)c3)c(-c3cnc4ccccc4c3)n(CC#N)c2=O)c1` [Compound I-017] here?
A: < 100 nM

Q: `Cc1cncc(-n2c(=O)c(-c3ccc(F)c(Cl)c3)c(-c3cc4ccccc4[nH]3)n(CC#N)c2=O)c1` [Compound I-026] was tested. Which EC50 did it give?
A: < 100 nM

Q: With `Cc1cncc(-n2c(=O)c(-c3ccc(F)c(Cl)c3)c(Cl)n(CC#N)c2=O)c1` [Compound I-015] as the compound, how does the EC50 read?
A: 100 to 1000 nM

Same assay, conditions: Severe acute respiratory syndrome coronavirus 2, HEK-293T, 72 h; HEK293T/ACE2-TMPRSS2 cells, CPE suppression, CellTiter-Glo 2.0 after 3 days culture; read-out: EC50 (50% SARS-CoV-2 infected cell death inhibitory concentration), class

Q: With `Cc1cncc(-n2c(=O)c(Cc3cc(F)c(F)c(F)c3)c(N3CCCC3)n(CC#N)c2=O)c1` [Compound I-203] as the compound, how does the EC50 read?
A: < 100 nM

Q: With `CC(C)(O)C1CN(c2c(-c3ccc(F)c(Cl)c3)c(=O)n(-c3cnc4cc(Cl)ccn34)c(=O)n2CC#N)C1` [Compound I-133] as the compound, how does the EC50 read?
A: < 100 nM

Same assay, conditions: Severe acute respiratory syndrome coronavirus 2, HEK-293T; 50% SARS-CoV-2 infected cell death inhibitory concentration; HEK293T/ACE2-TMPRSS2 cells; read-out: EC50

Q: `N#CCn1c(N2CC(C(F)(F)F)C2)c(-c2ccc(F)c(C(F)F)c2)c(=O)n(-c2cncc(Cl)c2)c1=O` [Compound I-341] was tested. Which EC50 did it give?
A: < 100 nM

Q: `Cc1cncc(-n2c(=O)c(-c3ccc(F)c(Cl)c3)c(C3=CC4(CCOCC4)C3)n(CC#N)c2=O)c1` [Compound I-297] was tested. Which EC50 did it give?
A: < 100 nM

Q: For `N#CCn1c(N2CC(OC(F)F)C2)c(-c2ccc(F)c(Cl)c2)c(=O)n(-c2cncc(Cl)c2)c1=O` [Compound I-298], which EC50 is on record?
A: < 100 nM

Q: With `CC(C)(F)Cc1c(-c2ccc(F)c(Cl)c2)c(=O)n(-c2cncc(Cl)c2)c(=O)n1CC#N` [Compound I-307] as the compound, how does the EC50 read?
A: < 100 nM

Q: With `Cc1c(-c2ccc(F)c(Cl)c2)c(=O)n(-c2cncc(Cl)c2)c(=O)n1CC(=O)CO` [Compound I-443] as the compound, how does the EC50 read?
A: 100 to 1000 nM

Q: With `N#CCn1c(N2CC(O)(C(F)(F)F)C2)c(-c2ccc(F)c(C#N)c2)c(=O)n(-c2cncc(Cl)c2)c1=O` [Compound I-373] as the compound, how does the EC50 read?
A: < 100 nM

Q: For `N#CCn1c(N2CC(O)(C(F)F)C2)c(-c2ccc(F)c(Cl)c2)c(=O)n(-c2cncc(C(F)F)n2)c1=O` [Compound I-345], which EC50 is on record?
A: < 100 nM

Q: With `COc1ccc(-c2c(-c3ccc(F)c(Cl)c3)c(=O)n(-c3cncc(Cl)c3)c(=O)n2CC#N)cn1` [Compound I-379] as the compound, how does the EC50 read?
A: < 100 nM
